This is an account of results in patent publication US11129829B2, “Methods for modulating splicing” (Skyhawk Therapeutics, Inc., priority 2019, dated 2021).

Assay type in all cases: cell-based
For assay [1], the system named is A-673. Nature of the assay: A-673 cell viability.
For assay [2], the system named is FoxM1 A mRNA. Nature of the assay: Splice EC50: FoxM1 A mRNA increase (exon excluded). Conditions: read-out: Splice EC50 (nM)^B.
The test system of assay [3] is FoxM1 BC mRNA. Nature of the assay: Splice IC50: FoxM1 BC mRNA decrease (exon included). Conditions: read-out: Splice IC50 (nM)^C.
Where [4] appears, read: Homo sapiens, A673, Cell viability.

Some results are limits rather than exact numbers.

Consider `[2H]C([2H])([2H])n1ccc(-c2ccc(-c3ccc(N(C)[C@@H]4C[C@H]5CCC[C@@H](C4)N5)nn3)c(O)c2)cc1=O` [compound 284, 4-(4-(6-(((1R,3S,5S)-9-azabicyclo[3.3.1]nonan-3-yl)(methyl)amino)pyridazin-3-yl)-3-hydroxyphenyl)-1-(methyl-d3)pyridin-2(1H)-one], for which the IC50 in assay [1] (setting [4]) and in assay [3] was less than 10 nM each time. For the same compound, the EC50 in assay [2] is greater than 1000 nM.

For the compound `CN(c1ccc(-c2ccc(-c3cnn(C(F)F)c3)cc2O)nn1)[C@@H]1C[C@H]2CCC[C@@H](C1)N2` [compound 301, 2-(6-(((1R,3S,5S)-9-azabicyclo[3.3.1]nonan-3-yl)(methyl)amino)pyridazin-3-yl)-5-(l-(difluoromethy)-1H-pyrazol-4-yl)phenol], the IC50 in assay [1] (setting [4]) lay within 10 to 100 nM.

`Oc1cc(-c2cn[nH]c2)c(F)cc1-c1ccc(O[C@@H]2C[C@H]3CCC[C@@H](C2)N3)nn1` [compound 278, 2-(6-(((1R,3S,5S)-9-azabicyclo[3.3.1]nonan-3-yl)oxy)pyridazin-3-yl)-4-fluoro-5-(1H-pyrazol-4-yl)phenol]: the IC50 in assay [1] (setting [4]) was 10 to 100 nM.

With `CN(c1ccc(-c2ccc(-n3ccnn3)cc2O)nn1)[C@@H]1C[C@H]2CCC[C@@H](C1)N2` [compound 279, 2-(6-(((1R,3S,5S)-9-azabicyclo[3.3.1]nonan-3-yl)(methyl)amino)pyridazin-3-yl)-5-(1H-1,2,3-triazol-1-yl)phenol], the IC50 was 10 to 100 nM in assay [1] (Cell viability) and less than 10 nM in assay [3]. Also, the EC50 in assay [2] is less than 10 nM.

`Oc1cc(-c2c[nH]nn2)ccc1-c1ccc(O[C@@H]2C[C@H]3CC[C@@H](C2)N3)nn1` [compound 253, 2-(6-(((1R,3S,5S)-8-azabicyclo[3.2.1]octan-3-yl)oxy)pyridazin-3-yl)-5-(1H-1,2,3-triazol-4-yl)phenol]: the 50% inhibitory concentration (IC50) is 501 to 1000 nM in assay [1] (setting [4]) and 251 to 500 nM in assay [3]. Also, in assay [2], the EC50 lay in the range of 251 to 500 nM.

In assay [1] (Cell viability), “2-(6-(((1R,3S,5S)-1,5-dimethyl-8-azabicyclo[3.2.1]octan-3-yl)(methyl)amino)pyridazin-3-yl)-5-(l-(methyl-d3)-1H-pyrazol-4-yl)phenol [compound 171]” yielded an IC50 of 10 to 100 nM.

On to `CN(C)C(=O)c1cc2cc(O)c(-c3ccc(N(C)[C@@H]4C[C@H]5CCC[C@@H](C4)N5)nn3)cc2o1` [compound 295, 6-(6-(((1R,3S,5S)-9-azabicyclo[3.3.1]nonan-3-yl)(methyl)amino)pyridazin-3-yl)-5-hydroxy-N,N-dimethylbenzofuran-2-carboxamide], for which, in assay [1] (setting [4]), the IC50 lay within 251 to 500 nM.

As to `Oc1cc(-c2cn[nH]c2)ccc1-c1ccc(O[C@@H]2C[C@H]3COC[C@@H](C2)N3)nn1` [compound 159, 2-(6-(((1R,5S,7r)-3-oxa-9-azabicyclo[3.3.1]nonan-7-yl)oxy)pyridazin-3-yl)-5-(1H-pyrazol-4-yl)phenol], the IC50 in assay [1] (setting [4]) and in assay [3] was 501 to 1000 nM throughout. Further, the EC50 in assay [2] is 251 to 500 nM.

In assay [1] (setting [4]), `CN(C)C(=O)c1cc2cc(-c3ccc(N(C)[C@@H]4C[C@H]5CCC[C@@H](C4)N5)nn3)c(O)cc2o1` [compound 298, 5-(6-(((1R,3S,5S)-9-azabicyclo[3.3.1]nonan-3-yl)(methyl)amino)pyridazin-3-yl)-6-hydroxy-N,N-dimethylbenzofuran-2-carboxamide] gave an IC50 of 10 to 100 nM.

For the compound `Oc1cc(-c2cn[nH]c2)ccc1-c1ccc(O[C@@H]2C[C@H]3CCC[C@@H](C2)N3)nn1` [compound 277, 2-(6-(((1R,3R,5S)-9-azabicyclo[3.3.1]nonan-3-yl)oxy)pyridazin-3-yl)-5-(1H-pyrazol-4-yl)phenol], the IC50 in assay [1] (Cell viability) and in assay [3] was greater than 1000 nM throughout. Further, the EC50 in assay [2] was greater than 1000 nM.

“6-(6-(((1R,3S,5S)-8-azabicyclo[3.2.1]octan-3-yl)(methyl)amino)pyridazin-3-yl)quinolin-7-ol [compound 162]” yielded an IC50 in assay [1] (Cell viability) of 251 to 500 nM.

With `[2H]C([2H])([2H])n1ncc(-c2ccc(-c3ccc(N(C)[C@@H]4C[C@H]5CCC[C@@H](C4)N5)nn3)c(O)c2)cc1=O` [compound 281], the IC50 in assay [1] (setting [4]) and in assay [3] was less than 10 nM in each case. Also, the concentration giving a half-maximal response (EC50) in assay [2] was less than 10 nM.

Take `CN(c1ccc(-c2ccc(-n3nccn3)cc2O)nn1)[C@@H]1C[C@H]2CCC[C@@H](C1)N2` [compound 275, 2-(6-(((1R,3S,5S)-9-azabicyclo[3.3.1]nonan-3-yl)(methyl)amino)pyridazin-3-yl)-5-(2H-1,2,3-triazol-2-yl)phenol]: the IC50 in assay [1] (Cell viability) and in assay [3] was less than 10 nM in each case. For the same compound, in assay [2], the EC50 was less than 10 nM.

On to `Cc1cn(-c2ccc(-c3ccc(N(C)[C@H]4C[C@]5(C)CC[C@](C)(C4)N5)nn3)c(O)c2)cn1` [compound 177, 2-(6-(((1R,3S,5S)-1,5-dimethyl-8-azabicyclo[3.2.1]octan-3-yl)(methyl)amino)pyridazin-3-yl)-5-(4-methyl-1H-imidazol-1-yl)phenol], for which the IC50 in assay [1] (setting [4]) is 10 to 100 nM; in assay [3], less than 10 nM. The EC50 in assay [2] is less than 10 nM.

A word on the IC50: it is the point on the concentration scale where inhibition reaches its midpoint. The EC50 is the concentration that produces a half-maximal response.
